From publication PMC7339037 (Journal of medicinal chemistry, 2017)

How the values were obtained:
Solubility = assay type: physicochemical
[1] = target: RPA (replication protein A) (Homo sapiens, UniProt P27694); assay: RPA-based EMSA; assay type: binding; conditions: at 10 μM
full length human XPA = full length human XPA (Homo sapiens, UniProt P23025); assay: EMSA, binding of full length human XPA to a cisplatin-modified DNA
Chain of full length human XPA (P23025 whole entry): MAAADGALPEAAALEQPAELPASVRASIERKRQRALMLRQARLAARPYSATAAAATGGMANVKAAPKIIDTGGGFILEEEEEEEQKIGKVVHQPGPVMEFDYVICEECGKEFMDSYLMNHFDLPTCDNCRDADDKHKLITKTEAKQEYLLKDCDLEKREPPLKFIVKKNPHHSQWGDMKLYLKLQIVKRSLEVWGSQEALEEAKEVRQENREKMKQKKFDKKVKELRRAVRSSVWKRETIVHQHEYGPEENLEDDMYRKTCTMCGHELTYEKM

Chain of RPA (replication protein A) (P27694 whole entry): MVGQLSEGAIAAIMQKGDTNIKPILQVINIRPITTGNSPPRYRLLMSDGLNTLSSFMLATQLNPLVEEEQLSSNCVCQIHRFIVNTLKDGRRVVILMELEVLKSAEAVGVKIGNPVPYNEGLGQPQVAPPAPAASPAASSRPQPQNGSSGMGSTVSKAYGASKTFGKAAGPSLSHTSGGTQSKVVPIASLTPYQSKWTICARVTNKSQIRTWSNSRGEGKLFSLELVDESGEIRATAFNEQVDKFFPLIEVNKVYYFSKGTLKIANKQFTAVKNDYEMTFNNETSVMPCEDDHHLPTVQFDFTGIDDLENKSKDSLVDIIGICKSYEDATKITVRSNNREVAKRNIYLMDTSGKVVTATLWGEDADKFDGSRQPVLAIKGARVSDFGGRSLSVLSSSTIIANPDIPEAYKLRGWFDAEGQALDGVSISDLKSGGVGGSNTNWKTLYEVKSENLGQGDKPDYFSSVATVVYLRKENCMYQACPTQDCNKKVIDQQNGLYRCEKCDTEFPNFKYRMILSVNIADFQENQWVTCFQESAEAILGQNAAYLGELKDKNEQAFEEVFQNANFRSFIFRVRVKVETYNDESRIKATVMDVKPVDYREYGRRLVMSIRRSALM

Structure (SMILES)	solubility (in words) (Solubility)	RPA inhibition [1]	XPA inhibitory activity (in words) (full length human XPA)
CC1=NN(c2ccc(Cl)c(C(=O)O)c2)C(=O)/C1=C\c1ccc(-c2ccc(Cl)c(C(=O)OCc3ccccc3)c2)o1 [Compound 22]	poor solubility	no RPA inhibition	
CC1=NN(c2ccc(Cl)c(C(=O)O)c2)C(=O)/C1=C\c1ccc(-c2ccc(Cl)c(C(=O)OCc3ccccc3Cl)c2)o1 [Compound 24]	poor solubility	no RPA inhibition	
CCOC(=O)c1cccc(N2N=C(C)/C(=C/c3ccc(-c4ccc(Cl)c(C(=O)NCc5ccc(F)cc5)c4)o3)C2=O)c1 [Compound 33a, (Z)-Ethyl 3-(4-((5-(4-Chloro-3-((4-fluorobenzyl)carbamoyl)phenyl)furan-2-yl)-methylene)-3-methyl-5-oxo-4,5-dihydro-1H-pyrazol-1-yl)benzoate]			dramatically decreased or almost no XPA inhibitory activity
CC1=NN(c2cccc(C(=O)O)c2)C(=O)/C1=C\c1ccc(-c2ccc(Cl)c(C(=O)NCc3ccc(F)cc3)c2)o1 [Compound 34a, (Z)-3-(4-((5-(4-Chloro-3-((4-fluorobenzyl)carbamoyl)phenyl)furan-2-yl)methylene)-3-methyl-5-oxo-4,5-dihydro-1H-pyrazol-1-yl)-benzoic Acid]	dramatically increased solubility		
CC1=NN(c2cccc(C(=O)NCC3CC3)c2)C(=O)/C1=C\c1ccc(-c2ccc(Cl)c(C(=O)NCC3CC3)c2)o1 [Compound 34e, (Z)-2-Chloro-N-(cyclopropylmethyl)-5-(5-((1-(3-((cyclopropylmethyl)carbamoyl)phenyl)-3-methyl-5-oxo-1H-pyrazol-4(5H)-ylidene)methyl)furan-2-yl)-benzamide]			dramatically decreased or almost no XPA inhibitory activity
CC1=NN(c2cccc(C(=O)O)c2)C(=O)/C1=C\c1ccc(-c2ccc(C(=O)NCc3ccc(F)cc3)cc2)o1 [Compound 39a, (Z)-3-(4-((5-(4-((4-Fluorobenzyl)carbamoyl)phenyl)furan-2-yl)-methylene)-3-methyl-5-oxo-4,5-dihydro-1H-pyrazol-1-yl)benzoic Acid]			no XPA inhibitory activity
CC1=NN(c2cccc(C(=O)O)c2)C(=O)/C1=C\c1ccc(-c2ccc(C(=O)NCC3CC3)cc2)o1 [Compound 39b, (Z)-3-(4-((5-(4-((Cyclopropylmethyl)carbamoyl)phenyl)furan-2-yl)methylene)-3-methyl-5-oxo-4,5-dihydro-1H-pyrazol-1-yl)benzoic Acid]			no XPA inhibitory activity

Now from value to compound, other results behind:

solubility (in words) (Solubility)	RPA inhibition [1]	Structure (SMILES)	XPA inhibitory activity (in words) (full length human XPA)
	no RPA inhibition	CC1=NN(c2ccc(C(=O)O)cc2)C(=O)/C1=C\c1ccc(-c2ccc(Cl)c(C(=O)NCc3ccc(F)cc3)c2)o1 [Compound 34i, (Z)-4-(4-((5-(4-Chloro-3-((4-fluorobenzyl)carbamoyl)phenyl)-furan-2-yl)methylene)-3-methyl-5-oxo-4,5-dihydro-1H-pyrazol-1-yl)benzoic Acid]	
	no RPA inhibition	CC1=NN(c2ccc(C(=O)O)cc2)C(=O)/C1=C\c1ccc(-c2ccc(Cl)c(C(=O)NCC3CC3)c2)o1 [Compound 34k, (Z)-4-(4-((5-(4-Chloro-3-((cyclopropylmethyl)carbamoyl)phenyl)-furan-2-yl)methylene)-3-methyl-5-oxo-4,5-dihydro-1H-pyrazol-1-yl)benzoic Acid]	
